The values that follow come from patent US7629376B2, “3-substituted-5- and 6-aminoalkyl indole-2-carboxylic acid amides and related analogs as inhibitors of casein kinase I” (Aventis Pharmaceuticals Inc., priority 2004, dated 2009).

One may read the Ki as a measure of affinity in units of concentration, obtained from inhibition or displacement. The term melting point denotes the temperature of the solid-liquid transition.

The target of one series is T1, casein kinase 1ε (Homo sapiens, UniProt P49674).
T1 construct: made in house
Description: Casein Kinase Epsilon 33P-ATP Filter Plate Assay for Screening CK1ε Inhibitors. The class given is biochemical.

Series [1] has as its system Mper1-luc Rat-1 fibroblasts (P2C4). Description: Cellular Circadian Assay (Mper1-luc reporter period lengthening). The format is cell-based. As to conditions: effective micromolar concentration that induces a 1 hour lengthening of period. As to the method: Cellular Circadian Assay Experimental Procedures
Stable transfection: Co-transfect Rat-1 fibroblast cultures at 30-50% confluence with vectors containing the Zeocin resistance selectable marker for stable transfection and an mPer1 promoter-driven luciferase reporter gene. After 24-48 hours, split the cultures onto 96 well plates and maintain in growth media supplemented with 50-100 μg/mL Zeocin (Invitrogen #45-0430) for 10-14 days. Assess Zeocin-resistant stable transfectants for reporter expression by supplementing growth media with 100 μM luciferin (Promega #E1603) and assaying luciferase activity on a TopCount scintillation counter (Packard Model #C384V00). […] Select Mper1-luc Rat-1 fibroblasts clone P2C4 for compound testing.
After synchronization, rinse cultures with 100 μL EMEM (Cellgro #10-010-CV) for 10 minutes at room temperature. […] Add compounds to be tested for circadian effects to CO2-independent media in 0.3% DMSO (final concentration).
Estimate in vivo luciferase activity by measuring relative light output on a TopCount scintillation counter (Packard Model #C384V00). Transfer plates from incubator to reader using an ORCA robotic arm (Beckman Instruments) and SAMI-NT automated scheduling software (Version 3.3; SAGIAN/Beckman Instruments).
Data Analysis Use Microsoft Excel and XLfit (Version 2.0.9; IDBS) to import, manipulate and graph data. Perform period analysis either by determining the interval between relative light output minima over several days or by Fourier Transform. […] Analyze the data by fitting a hyperbolic curve to the data expressed as period change (y-axis) versus the concentration of test compound (x-axis) in XLfit and interpolate the EC ? t+1h from this curve.

T1 sequence (P49674 whole entry): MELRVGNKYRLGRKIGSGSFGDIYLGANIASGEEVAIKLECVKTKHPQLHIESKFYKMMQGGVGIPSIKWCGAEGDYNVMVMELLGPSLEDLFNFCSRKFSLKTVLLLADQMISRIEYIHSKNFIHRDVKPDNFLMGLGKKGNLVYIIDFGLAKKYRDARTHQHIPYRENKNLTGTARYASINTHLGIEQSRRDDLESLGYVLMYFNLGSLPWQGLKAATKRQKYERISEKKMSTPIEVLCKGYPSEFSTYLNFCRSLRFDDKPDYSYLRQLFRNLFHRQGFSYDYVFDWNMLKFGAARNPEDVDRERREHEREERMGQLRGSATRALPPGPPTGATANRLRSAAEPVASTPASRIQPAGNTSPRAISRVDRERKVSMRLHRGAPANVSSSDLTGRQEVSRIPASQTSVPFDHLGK
Description for casein kinase 1ε: Casein Kinase Epsilon ^33P-ATP Filter Plate Assay for Screening CK1ε Inhibitors
Purpose: This assay measures the ability of compounds to inhibit the phosphorylation of the substrate casein by the enzyme casein kinase 1ε using an in vitro ^33P-ATP filtration assay.
The above are stored as 100 μL aliquots at minus 80° C. • Compounds: • Supply compounds for testing as frozen 10 mM compound stock dissolved in 100% DMSO. Assay Conditions: • Final total assay volume per well is equal to 50 μL that one prepares as follows: • 5 μL of diluted compound stock (10, 1, 0.1, 0.01 or 0.001 μM), • 5 μL of dephosphorylated casein final concentration 0.2 μg/μL, • 20 μL of CK1ε final concentration 3 ng/μL, and • 20 μL of γ-^33P-ATP final concentration 0.02 μCi/μL mixed with cold ATP (10 μM final). Methodology: • 1. Prepare 500 mL of fresh assay buffer: 50 mM Tris pH 7.5, 10 nm MgCl2, 2 mM DTT and 1 mM EGTA • 2. Obtain compounds to be evaluated as 10 μL of 10 mM stock dissolved in 100% DMSO. Use a Biomek 2000 liquid handling robot, make serial dilutions to yield 10, 1, 0.1, 0.01 and 0.001 μM final compound dilutions added as 5 μL additions to Falcon U bottom plates. […] A routine screening assay will consist of 32 compounds, which equals 4 assay plates. • 3.
• 4. Add 5 μL of compound as indicated, then add 5 μL of dephosphorylated casein (dissolved in distilled H20) (0.2 μg/μL) and 20 μL CK1ε (3 ng/μL) to the appropriate wells. • 5. Finally add 20 μL γ-^33P-ATP (0.02 μCi/μL)/10 μM cold ATP (equals approximately 2×10^6 CPM per well). • 6. Vortes the Falcon U-Bottom assay plate containing the above 50 μL reaction volume and then incubate at room temperature for 2 hours. • 7. At the end of 2 hours, stop the reaction by the addition of 65 μL of ice cold 2 mM cold ATP (made up in assay buffer) to the assay plates using a Beckman Multimek. • 8. At the same time add 25 μL 100% ice cold TCA made up in distilled H20 to a matching number of Millipore MAPH filter plates. • 9. Using a handheld 8-channel pipettor, transfer 100 μL of the reaction mixture from the Falcon U-Bottom Plate to the Millipore MAPH filter plates presoaked with TCA. • 10. Mix the Millipore MAPH filter plates gently and allow to sit at room temperature for at least 30 minutes to precipitate the proteins. • 11. After 30 minutes, place the filter plates on a Millipore vacuum manifold and filter at no more than 8 mm Hg as the MAPH filters tend to “air lock” at higher vacuum settings. • 12. […] Allow the plates to dry overnight at room temperature. The next day add 40 μL Packard Microscint-20 Scintillation Fluid per well using a Titertek Multidrop dispenser; seal the plates and count for 2 minutes/well in a Packard Topcount NXT Scintillation Counter (to provide CPM values/well). Calculation: • 1. Import Counts Per Minute (CPM) data into a proprietary data calculation and archiving database (Activity Base by IDBS version 5.0). • 2. Column 1 for each plate reflects total phosphorylation activity of the enzyme in the absence of any inhibiting compound and thus represents 100%. Column 12 reflects any nonspecific phosphorylation/retained radioactivity activity in the absence of inhibiting compound and enzyme. Typically one observes approximately 1% of Total CPMs that are “nonspecific”. • 3.

As to `CC(C)(C)OC(=O)NCc1ccc2c(Sc3ccccc3)c(C(N)=O)[nH]c2c1` [IIb, (2-Carbamoyl-3-phenylsulfanyl-1H-indol-6-ylmethyl)-carbamic acid tert-butyl ester], the melting point fell in the range of 118 to 121 °C. Also, affinity at casein kinase 1ε was put at a Ki of 2330 nM.
On to `NC(=O)c1[nH]c2ccc(CN3CCN(c4ncccn4)CC3)cc2c1Sc1ccccc1` [Ip, 3-Phenylsulfanyl-5-(4-pyrimidin-2-yl-piperazin-1-ylmethyl)-1H-indole-2-carboxylic acid amide], for which the “Cell Assay ECΔτ1h” value in series [1] stood at 1.87 µM. Moreover, the Ki on casein kinase 1ε was 74 nM.
Taken in the same sequence, the figures for `NC(=O)c1[nH]c2ccc(CN3CCN(CC=Cc4ccccc4)CC3)cc2c1Sc1ccccc1` [Iq, 5-[4-(3-Phenylpropenyl)piperazin-1-ylmethyl]-3-phenylsulfanyl-1H-indole-2-carboxylic acid amide] were above 3 µM and 310 nM.
The matching figures for `CC(C)(C)OC(=O)N1CCCN(Cc2ccc3[nH]c(C(N)=O)c(Sc4ccccc4)c3c2)CC1` [Ir, 4-(2-Carbamoyl-3-phenylsulfanyl-1H-indol-5-ylmethyl)-[1,4]diazepane-1-carboxylic acid tert-butyl ester]: above 10 µM and 130 nM.
The matching figures for `NC(=O)c1[nH]c2ccc(CN3CCCNCC3)cc2c1Sc1ccccc1` [Is, 5-[1,4]Diazepan-1-ylmethyl-3-phenylsulfanyl-1H-indole-2-carboxylic acid amide]: 7.85 µM and 120 nM.
For `NC(=O)c1[nH]c2ccc(CNC3CC4CCC3C4)cc2c1Sc1ccccc1` (centres unmarked) [It], the “Cell Assay ECΔτ1h” value in series [1] is 2.70 µM. The molecule further came in with an inhibition constant (Ki) at casein kinase 1ε of 450 nM.
Turning to `CC(CO)NCc1ccc2[nH]c(C(N)=O)c(Sc3ccccc3)c2c1` (centres unmarked) [Ix, 5-[(2-Hydroxy-1-methyl-ethylamino)methyl]-3-phenylsulfanyl-1H-indole-2-carboxylic acid amide], the melting point was in the range of 192.7 to 193.6 °C. For the same molecule, on casein kinase 1ε, the affinity, expressed as Ki, was 130 nM.
